Laboratory results published in US10227295B2, “Selective histone deactylase 6 inhibitors” (H. LEE MOFFITT CANCER CENTER AND RESEARCH INSTITUTE, INC., priority 2013, dated 2019).

Legend:
[1] = test system: B16 murine melanoma cells; assay: B16 melanoma cell growth inhibition MTS assay; assay type: cell-based; details: for GI50: Mus musculus, B16 murine melanoma cells; for GI50 / growth inhibition of B16 melanoma cells (in words): 48 h, MTS
Experimental: B16 murine melanoma cells were plated at 5×10^3/well in 96 well flat bottom plates. The following day, media was changed to that containing various concentrations of HDACi or matched DMSO vehicle concentrations diluted in complete medium done in triplicate. Cells were incubated for 48 hours at 37° C. and 5% CO2. […] Briefly, 20 μL of reagent were added per well and incubated at 37° C. for 3 hours. […] All values were then normalized and expressed as a percentage of medium control (100%).

[2] = target: human, recombinant full-length HDAC6 (Homo sapiens (Human), UniProt Q9UBN7); assay: HDAC inhibition assay (Reaction Biology), HDAC6; assay type: biochemical
[3] = test system: murine mantle cell lymphoma (MCL); assay: Cell viability CellTiter 96 Aqueous ONE, MCL; assay type: cell-based; details: 24 hrs, compared to DMSO
Experimental: (§1) Human cutaneous T-cell lymphoma (CTCL) HuT-78 (A), murine mantle cell lymphoma (MCL) (B), and murine melanoma B16 (C) and SM1 (D) cells were incubated with JB7-19, JB7-22, JB720 at different concentrations for 24 hrs. Cell viability was measured using CellTiter 96 Aqueous ONE solution (Promega, Madison, Wis.) and compared to DMSO treated control samples. Error bars represent standard deviation from triplicates.

[4] = test system: Human cutaneous T-cell lymphoma (CTCL) HuT-78; assay: Cell viability CellTiter 96 Aqueous ONE, HuT-78; assay type: cell-based; details: HuT-78, 24 hrs, compared to DMSO
Experimental: as §1

murine melanoma SM1 = assay: Cell viability CellTiter 96 Aqueous ONE, SM1; assay type: cell-based; details: SM1, 24 hrs, compared to DMSO
Experimental: as §1

[5] = test system: acetyl-tubulin and acetyl-histone3 in human melanoma cell lines; assay: Western blot of HDAC substrate acetylation in human melanoma cells; assay type: cell-based; details: 24 hrs
Experimental: Error bars represent standard deviation from triplicates. This figure is representative of three independent experiments. (F,G,H) Cell cycle analysis of melanoma WM164, WM983A and WM793 human melanoma cell lines stained with propidium iodide. Data is representative of three experiments with similar results.
To confirm the selectivity of isotype specific HDACi, Western blot analysis was performed on the acetylation status of known HDAC substrates including histone H3 and H4, which are known Class I HDAC targets, and α-tubulin, a target for HDAC6. The doses required to impart the anti-proliferative effect coincided with that needed to increase acetylation of the respective HDAC substrates (FIG. 41F-41H). […] Conversely, HDAC6 selective inhibitors (HDAC6i) increase α-tubulin acetylation but not histone acetylation (FIG. 41F).

[6] = test system: IL-10 production in murine peritoneal elicited primary macrophages (PEM); assay: IL-10 production ELISA, PEM; assay type: cell-based; details: 24 hrs
Experimental: (§2) Murine peritoneal elicited primary macrophages (PEM)(A) and murine RAW264.7 (B) cells were incubated with JB7-19, JB7-22, JB720 at the concentration indicated on each chart. After 24 hrs, the production of IL-10 was measured by ELISA.

murine melanoma B16 = assay: Cell viability CellTiter 96 Aqueous ONE, B16; assay type: cell-based; details: B16, 24 hrs, compared to DMSO
Experimental: as §1

[7] = test system: IL-10 production in murine RAW264.7 cells; assay: IL-10 production ELISA, RAW264.7; assay type: cell-based; details: RAW264.7, 24 hrs
Experimental: as §2

[8] = test system: melanoma antigens gp100, MART1, TYRP1 and TYRP2 in human melanoma cell lines; assay: Tumor antigen expression by qRT-PCR; assay type: cell-based; details: 48 hours
Experimental: (D) Expression of tumor antigens was measured in human WM164 non-target and HDAC6KD cells. (E) Expression of tumor antigens mart-1 and gp-100 was measured by western blot.
In addition to direct cytotoxicity, pan-HDACi have immunologic effects on melanoma including modulation of MHC, co-stimulatory molecules, and cytokine production. In both human and murine melanoma cell lines, genetic (FIG. 43A) and pharmacologic (FIG. 43B) disruption of HDAC6 led to increased surface expression of MHC I by flow cytometry.

STAT3 in APCs = assay: STAT3 phosphorylation and recruitment to IL-10 gene promotor in APCs; assay type: cell-based
Text: FIG. 26 is a flow chart depicting the experimental design of the in vitro antigen-presenting studies.
Human MCL cells display an enhanced expression of HDAC6. Disruption of HDAC6 in malignant B-cells inhibits their proliferation and is associated with induction of apoptosis. Pharmacologic or genetic disruption of HDAC6 in MCL cells augment their antigen-presenting capabilities leading to better T-cell activation and restoration of function of anergic Tcells in vitro. […] Disclosed herein is the rationale to use HDAC6 specific inhibitor(s) alone or in combination with STAT3 inhibitors in MCL.

[9] = test system: NRAS and BRAF mutant human melanoma cell lines; assay: Human melanoma cell proliferation MTS assay; assay type: cell-based; details: 24 h, panel of human melanoma cell lines
Experimental: Cell proliferation was evaluated using various pan- and isotype selective HDACi in a broad panel of human melanoma cell lines. Briefly, cells were plated at 10×10^3/well in a 96 well flat bottom plate. The following day, media was changed to that containing different concentrations of HDACi or matched DMSO vehicle concentrations diluted in complete medium done in triplicate, all with a final concentration of less than 0.1% DMSO. Cells were incubated for 24 hours at 37° C. and 5% CO2. […] All values were then normalized and expressed as a percentage of medium control growth.

B16 melanoma = assay: In vivo B16 melanoma tumor growth in C57BL/6 mice; details: 25 mg/kg, intraperitoneal, three times weekly, B16 subcutaneous
[10] = test system: antigen-specific T-cell responses; assay: In vivo antigen-specific T-cell response to vaccination; parameters: species or system mice; details: in vivo treatment
Text: Tubastatin A-treated macrophages are better activators of […] and restore the responsiveness of anergicT-cells in vitro. […] Mechanistically, Tubastatin-A disrupt […] pathway and tip the balance towards immunogenic rather than tolerogenic macrophages.

[11] = test system: acetyl-α-tubulin and acetyl-H3 in B16 melanoma cells; assay: Tubulin and histone acetylation Western blot assay; assay type: cell-based, murine; details: low nanomolar treatment, 24 h
Experimental: […]. B16 melanoma cells were plated at 10^5 cells/well in 12 well plates and allowed to adhere overnight. A 50 mM stock of compound was then added by serial dilutions in complete medium to the indicated concentrations. Cells were incubated for 24 h under humidified conditions (37° C., 5% CO2). Wells were then washed with cold PBS, and cells were lysed in a buffer containing 10 mM Tris-HCl pH 8.0, 10% SDS, […], 100 mM DTT, and 1× protease inhibitor (Roche). Cells were lysed for 30 min on ice and then sonicated for 8 min (8 cycles of 30 s on/30 s rest). Cells were then boiled for 10 min with 6× gel loading buffer and resolved on 4-15% gradient gels and subsequently transferred onto nitrocellulose membranes. Membranes were blocked with 5% milk in PBS-T and detection of specific antigens using antibodies against acetyl-H3 and H3 (Cell Signaling), and acetyl-α-tubulin and α-tubulin (Sigma). Bands were detected by scanning blots with LI-COR Odyssey imaging system using both 700 and 800 channels.

Sequence of human, recombinant full-length HDAC6 (Q9UBN7 whole entry): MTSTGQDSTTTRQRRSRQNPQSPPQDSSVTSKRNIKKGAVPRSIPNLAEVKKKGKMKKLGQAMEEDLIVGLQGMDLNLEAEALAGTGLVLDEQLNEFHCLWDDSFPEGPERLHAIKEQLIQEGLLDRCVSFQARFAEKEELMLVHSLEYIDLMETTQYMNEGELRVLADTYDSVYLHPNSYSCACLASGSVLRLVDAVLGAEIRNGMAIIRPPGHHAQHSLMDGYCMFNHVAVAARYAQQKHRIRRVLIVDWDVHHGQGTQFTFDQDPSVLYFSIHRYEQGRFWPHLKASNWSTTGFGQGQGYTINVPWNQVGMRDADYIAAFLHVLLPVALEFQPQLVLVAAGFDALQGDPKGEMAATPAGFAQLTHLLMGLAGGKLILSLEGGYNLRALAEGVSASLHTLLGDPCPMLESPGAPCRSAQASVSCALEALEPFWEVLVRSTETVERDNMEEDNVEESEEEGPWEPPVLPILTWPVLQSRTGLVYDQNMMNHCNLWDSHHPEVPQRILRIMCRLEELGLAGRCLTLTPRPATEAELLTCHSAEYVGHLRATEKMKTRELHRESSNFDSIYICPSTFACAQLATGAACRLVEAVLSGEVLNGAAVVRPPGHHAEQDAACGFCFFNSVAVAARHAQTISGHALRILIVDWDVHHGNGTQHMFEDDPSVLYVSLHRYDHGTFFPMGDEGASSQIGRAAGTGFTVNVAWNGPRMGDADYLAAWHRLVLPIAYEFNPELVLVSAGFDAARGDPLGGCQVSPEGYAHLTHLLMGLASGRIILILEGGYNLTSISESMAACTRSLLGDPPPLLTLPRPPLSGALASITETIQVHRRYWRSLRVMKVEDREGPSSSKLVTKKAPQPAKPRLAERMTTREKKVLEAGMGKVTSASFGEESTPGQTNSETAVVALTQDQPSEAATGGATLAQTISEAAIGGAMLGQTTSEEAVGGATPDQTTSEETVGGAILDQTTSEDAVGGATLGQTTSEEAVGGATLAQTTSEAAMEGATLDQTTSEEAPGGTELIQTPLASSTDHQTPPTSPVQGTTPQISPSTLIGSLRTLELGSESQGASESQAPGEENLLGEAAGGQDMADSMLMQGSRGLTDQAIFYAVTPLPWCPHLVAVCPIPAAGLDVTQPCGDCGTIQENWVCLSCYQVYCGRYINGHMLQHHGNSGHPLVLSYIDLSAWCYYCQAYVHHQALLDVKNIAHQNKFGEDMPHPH

## CCCCN(C(=O)NCc1ccc(C(=O)NO)cc1)c1ccccc1 [Compound 8a, 4-((3-butyl-3-phenylureido)methyl)-N-hydroxybenzamide]
[1]
  GI50: 65.8 ± 1.19 µM

## COc1ccccc1NC(=O)NCc1ccc(C(N)=O)cc1 [Compound 1]
[2]; Table 1A
  Fold Selective (HDAC1/HDAC6): 2

## CCCCN(Cc1ccc(C(=O)NO)cc1)C(=O)Nc1ncccn1 [JB6-22, 4-((1-butyl-3-(pyrimidin-2-yl)ureido)methyl)-N-hydroxybenzamide]
[3]
  cell proliferation / viability: decrease cell proliferation
[4]
  cell proliferation / viability: decrease cell proliferation
Murine melanoma SM1
  cell proliferation / viability: decrease cell proliferation
[5]
  acetylation of α-tubulin and histone: increase acetyl-tubulin without modifying the acetylation status of Histone 3
[6]
  IL-10 production: inhibit IL-10 production
Murine melanoma B16
  cell proliferation / viability: decrease cell proliferation
[7]
  IL-10 production: inhibit IL-10 production

## O=C(NO)c1ccc(CN2C(=O)N[C@@H](Cc3ccccc3)C2=O)cc1 [Compound 11a]
[2]; Table 2, cyclic urea compounds
  Fold Selective (HDAC1/HDAC6): 295

## O=C(NO)c1ccc(CN(CCc2ccccc2)C(=O)Nc2ccccc2)cc1 [Compound 5h, N-hydroxy-4-((1-phenethyl-3-phenylureido)methyl)benzamide]
[1]
  growth inhibition of B16 melanoma cells (in words): capable of inhibiting the growth
  GI50: 15.4 ± 1.2 µM

## COCCCN(C(=O)NCc1ccc(C(=O)NO)cc1)c1ccccc1 [Compound 8b, N-hydroxy-4-((3-(3-methoxypropyl)-3-phenylureido)methyl)benzamide]
[1]
  GI50: > 100 µM

## COc1ccccc1NC(=O)N(CCc1c[nH]c2ccccc12)Cc1ccc(C(=O)NO)cc1 [Compound 5c, 4-((1-(2-(1H-indol-3-yl)ethyl)-3-(2-methoxyphenyl)ureido)methyl)-N-hydroxybenzamide]
[1]
  GI50: 30.4 ± 1.32 µM

## COc1ccccc1NC(=O)N(CCCO)Cc1ccc(C(=O)NO)cc1 [Compound 5b]
[1]
  growth inhibition of B16 melanoma cells (in words): performed very poorly
  GI50: > 100 µM

## CN1CCc2c(c3ccccc3n2Cc2ccc(C(=O)NO)cc2)C1 [Tubastatin A, reference compound]
[8]
  melanoma antigen expression at the mRNA level: upregulation of melanoma antigens gp100, MART1, TYRP1 and TYRP2
[5]
  acetylation of α-tubulin and histone: increase acetyl-tubulin without modifying the acetylation status of Histone 3
[1]
  GI50: 40.5 ± 1.21 µM
STAT3 in APCs
  STAT3 phosphorylation and recruitment to the IL-10 gene promotor: decreased STAT3 phosphorylation and recruitment to the IL-10 gene promotor
[9]
  concentration range inhibiting proliferation (in words): low micromolar range
B16 melanoma
  tumor growth: delayed tumor growth
[10]
  antigen-specific T-cell responses to vaccination: enhances antigen-specific T-cell responses to vaccination

## CCCCN(Cc1ccc(C(=O)NO)cc1)C(=O)Nc1ccccc1 [Compound 5g, 4-((1-butyl-3-phenylureido)methyl)-N-hydroxybenzamide]
[8]
  melanoma antigen expression at the mRNA level: upregulation of melanoma antigens gp100, MART1, TYRP1 and TYRP2
[5]
  acetylation of α-tubulin and histone: increase acetyl-tubulin without modifying the acetylation status of Histone 3
[1]
  less potent than LBH589 in inducing murine B16 melanoma cell death: approximately 100 fold
  growth inhibition of B16 melanoma cells (in words): capable of inhibiting the growth
[11]
  acetyl α-tubulin levels: dose-dependant increase
[11]; increase only at 1 and 10 μM
  histone H3 acetylation: without a concamanent elevation
B16 melanoma
  tumor growth: delayed tumor growth

## Cc1[nH]c2ccccc2c1CCNCc1ccc(/C=C/C(=O)NO)cc1 [LBH589, reference compound]
[1]
  GI50: 0.15 µM
[9]; read-out: IC50 range, inhibition of proliferation
  IC50: 0.01 to 0.05 µM

## Trichostatin A [TSA]
[9]
  concentration range inhibiting proliferation (in words): low 100 nM range

## COCCCN(Cc1ccc(C(=O)NO)cc1)C(=O)Nc1ccccc1 [Compound 5e, N-hydroxy-4-((1-(3-methoxypropyl)-3-phenylureido)methyl)benzamide]
[1]
  GI50: 22.2 ± 1.41 µM

## CCN(C(=O)NCc1ccc(C(=O)NO)cc1)c1ccccc1 [Compound 8c, 4-((3-ethyl-3-phenylureido)methyl)-N-hydroxybenzamide]
[1]
  GI50: > 100 µM

## COc1ccccc1N1C(=O)N(Cc2ccc(C(=O)NO)cc2)C(C)(C)C1=O [Compound 10a]
[2]; Table 2, cyclic urea compounds
  Fold Selective (HDAC1/HDAC6): 386

## CC(C)[C@@H]1C(=O)N(c2ccccc2)C(=O)N1Cc1ccc(C(=O)NO)cc1 [Compound 10b]
[2]; Table 2, cyclic urea compounds
  Fold Selective (HDAC1/HDAC6): 531

## CCCCN(Cc1ccc(C(=O)NO)cc1)C(=O)Nc1ccc2cn[nH]c2c1 [JB7-19, 4-((1-butyl-3-(1H-indazol-6-yl)ureido)methyl)-N-hydroxybenzamide]
[3]
  cell proliferation / viability: decrease cell proliferation
[4]
  cell proliferation / viability: decrease cell proliferation
Murine melanoma SM1
  cell proliferation / viability: decrease cell proliferation
[5]
  acetylation of α-tubulin and histone: increase acetyl-tubulin without modifying the acetylation status of Histone 3
[6]
  IL-10 production: inhibit IL-10 production
Murine melanoma B16
  cell proliferation / viability: decrease cell proliferation
[7]
  IL-10 production: inhibit IL-10 production

## COc1ccccc1NC(=O)N(CCCN(C)C)Cc1ccc(C(=O)NO)cc1 [Compound 5a, 4-((1-(3-(dimethylamino)propyl)-3-(2-methoxyphenyl)ureido)methyl)-N-hydroxybenzamide]
[1]
  GI50: 75.3 ± 1.23 µM

## COc1ccccc1NC(=O)N(CCc1ccc(O)cc1)Cc1ccc(C(=O)NO)cc1 [Compound 5d, N-hydroxy-4-((1-(4-hydroxyphenethyl)-3-(2-methoxyphenyl)ureido)methyl)-benzamide]
[1]
  GI50: 18.4 ± 1.23 µM
